The target of one assay is T1, ALDH1A1 enzyme (Homo sapiens, UniProt P00352).
T1 sequence (P00352 1-501): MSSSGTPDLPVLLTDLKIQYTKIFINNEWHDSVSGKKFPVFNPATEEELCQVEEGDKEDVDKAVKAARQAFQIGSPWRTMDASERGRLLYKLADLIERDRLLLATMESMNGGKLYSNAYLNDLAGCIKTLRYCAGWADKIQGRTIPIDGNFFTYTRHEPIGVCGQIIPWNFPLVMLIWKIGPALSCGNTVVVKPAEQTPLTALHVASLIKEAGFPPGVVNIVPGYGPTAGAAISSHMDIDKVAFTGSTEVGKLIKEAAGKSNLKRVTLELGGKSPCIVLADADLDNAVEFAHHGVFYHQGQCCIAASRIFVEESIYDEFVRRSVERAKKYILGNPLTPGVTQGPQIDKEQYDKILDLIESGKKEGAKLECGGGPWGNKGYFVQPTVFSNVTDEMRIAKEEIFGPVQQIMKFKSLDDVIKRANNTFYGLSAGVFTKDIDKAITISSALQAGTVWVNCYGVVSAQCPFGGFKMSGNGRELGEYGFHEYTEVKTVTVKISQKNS
Kind of assay: ALDH1A1 enzymatic assay (in vitro). In kind it is biochemical. The following applies: ALDH1A1 enzyme 20 nM, NAD+ 1 mM, propionaldehyde 80 μM; read-out: ALDH1A1 IC50. The method, then:
Example 358. ALDH1A1 Enzymatic Assay (In Vitro Assay)
3 μL of ALDH1A1 enzyme (final concentration 20 nM) or assay buffer (100 mM HEPES pH 7.5 with 0.01% Tween 20) were dispensed into a 1,536-well solid-bottom black plate (Greiner Bio One, Monroe, N.C.) followed by pin-tool transfer (23 nL) of candidate inhibitors (final concentration range 968 pM to 57.2 μM) and control (Bay 11-7085, final concentration range 1.31 nM to 2.86 μM). Samples were incubated (RT, protected from light) for 15 minutes followed by a 1 μL substrate addition of NAD^+ and Propionaldehyde (final concentrations of 1 mM and 80 μM, respectively). Plates were centrifuged at 1,000 rpm for 15 seconds, then read in kinetic mode on a ViewLux High-throughput CCD imager (Perkin-Elmer) equipped with standard UV fluorescence optics (340 nm excitation, 450 nm emission) for 10 minutes. The change in fluorescence intensity over the 10-minute reaction period was normalized against no-inhibitor and no-enzyme controls and the resulting percent inhibition data were fitted for biological activity.

For a further assay, the system named is MIA PaCa-2 cells. The experiment in a line: MIA PaCa2 cell-based assay (1,536-well high-content imaging ALDEFLUOR assay). The following applies: Homo sapiens, 0.5 h, ALDEFLUOR BAAA substrate 500 nM, 30 minutes. More on the design: species or system human. The essentials:
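MIA PaCa-2 cells (1,000/well), plated overnight, given BAAA substrate (500 nM) plus Hoechst 33342 (0.5 nM), then compound (16-point, 1.4 nM–47.8 μM final; 0.5% DMSO). After 30 min at 37° C, ALDH activity imaged by high-content microscopy as BAA-retaining (FITC) cells versus Hoechst-stained nuclei.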

Where a name gives a salt, the structure may show the parent alone.

Turning to `N#CC1(c2ccc(-c3c(C(=O)N[C@H]4CC[C@H](O)CC4)cnc4ccc(F)cc34)cc2)CC1` [Cpd. 338, 4-(4-(1-cyanocyclopropyl)phenyl)-6-fluoro-N-((1R,4R)-4-hydroxycyclohexyl)quinoline-3-carboxamide], the IC50 at ALDH1A1 enzyme and with MIA PaCa-2 cells was below 0.5 µM each time.
For the molecule `CN(C)C(=O)Cn1cc(NC(=O)c2cnc3ccc(F)cc3c2N2CCC(C#N)(c3ccccc3)CC2)cn1` [Cpd. 339, 4-(4-cyano-4-phenylpiperidin-1-yl)-N-(1-(2-(dimethylamino)-2-oxoethyl)-1H-pyrazol-4-yl)-6-fluoroquinoline-3-carboxamide], the IC50 at ALDH1A1 enzyme and with MIA PaCa-2 cells was below 0.5 µM throughout.
With `N#CC1(O)CCN(C(=O)c2cnc3ccc(F)cc3c2-c2ccc(C3(C#N)CC3)cc2)CC1` [Cpd. 340, 1-(4-(4-(1-cyanocyclopropyl)phenyl)-6-fluoroquinoline-3-carbonyl)-4-hydroxypiperidine-4-carbonitrile], the IC50 on ALDH1A1 enzyme was below 0.5 µM; in the assay with MIA PaCa-2 cells, 1 to 10 µM.
For `N#CC1(O)CCN(C(=O)c2cnc3ccc(F)cc3c2N2CCC(C#N)(c3ccccc3)CC2)CC1` [Cpd. 341, 1-(3-(4-cyano-4-hydroxypiperidine-1-carbonyl)-6-fluoroquinolin-4-yl)-4-phenylpiperidine-4-carbonitrile] the same measures were below 0.5 µM and 0.5 to 1 µM.
As to `N#CC1(c2ccc(-c3c(C(=O)Nc4cnn(CC(N)=O)c4)cnc4ccc(F)cc34)cc2)CC1` [Cpd. 342, N-(1-(2-amino-2-oxoethyl)-1H-pyrazol-4-yl)-4-(4-(1-cyanocyclopropyl)phenyl)-6-fluoroquinoline-3-carboxamide], the IC50 on ALDH1A1 enzyme is below 0.5 µM; with MIA PaCa-2 cells it was 0.5 to 1 µM.
As for `N#CC1(c2ccc(-c3c(C(=O)Nc4cnn(CCO)c4)cnc4ccc(F)cc34)cc2)CC1` [Cpd. 343, 4-(4-(1-cyanocyclopropyl)phenyl)-6-fluoro-N-(1-(2-hydroxyethyl)-1H-pyrazol-4-yl)quinoline-3-carboxamide], the IC50 at ALDH1A1 enzyme and with MIA PaCa-2 cells was below 0.5 µM each time.
Regarding `N#CC1(c2ccc(-c3c(C(=O)Nc4cnn(CC(=O)NC5CC5)c4)cnc4ccc(F)cc34)cc2)CC1` [Cpd. 344, 4-(4-(1-cyanocyclopropyl)phenyl)-N-(1-(2-(cyclopropylamino)-2-oxoethyl)-1H-pyrazol-4-yl)-6-fluoroquinoline-3-carboxamide], the IC50 was below 0.5 µM on ALDH1A1 enzyme and 1 to 10 µM in the assay on MIA PaCa-2 cells.
For `N#CC1(c2ccccc2)CCN(c2c(C(=O)Nc3cnn(CCO)c3)cnc3ccc(F)cc23)CC1` [Cpd. 345, 4-(4-cyano-4-phenylpiperidin-1-yl)-6-fluoro-N-(1-(2-hydroxyethyl)-1H-pyrazol-4-yl)quinoline-3-carboxamide], the IC50 on ALDH1A1 enzyme and with MIA PaCa-2 cells was below 0.5 µM throughout.
In the case of `CN(C)C(=O)Cn1cc(NC(=O)c2cnc3ccc(F)cc3c2-c2ccc(C3(C#N)CC3)cc2)cn1` [Cpd. 346, 4-(4-(1-cyanocyclopropyl)phenyl)-N-(1-(2-(dimethylamino)-2-oxoethyl)-1H-pyrazol-4-yl)-6-fluoroquinoline-3-carboxamide], the half-inhibitory concentration (IC50) on ALDH1A1 enzyme is 1 to 10 µM; with MIA PaCa-2 cells, above 10 µM.
For the molecule `N#CC1(c2ccccc2)CCN(c2c(C(=O)Nc3cnn(CC(=O)NC4CC4)c3)cnc3ccc(F)cc23)CC1` [Cpd. 347, 4-(4-cyano-4-phenylpiperidin-1-yl)-N-(1-(2-(cyclopropylamino)-2-oxoethyl)-1H-pyrazol-4-yl)-6-fluoroquinoline-3-carboxamide], the IC50 on ALDH1A1 enzyme and with MIA PaCa-2 cells was below 0.5 µM throughout.
Regarding `N#CC1(c2ccccc2)CCN(c2c(C(=O)N3CCC(O)(C4CC4)CC3)cnc3ccc(F)cc23)CC1` [Cpd. 348, 1-(3-(4-cyclopropyl-4-hydroxypiperidine-1-carbonyl)-6-fluoroquinolin-4-yl)-4-phenylpiperidine-4-carbonitrile], the IC50 at ALDH1A1 enzyme and in the assay on MIA PaCa-2 cells was below 0.5 µM throughout.
With `CC1(O)CCN(C(=O)c2cnc3ccc(F)cc3c2N2CCC(C#N)(c3ccccc3)CC2)CC1` [Cpd. 349, 1-(6-fluoro-3-(4-hydroxy-4-methylpiperidine-1-carbonyl)quinolin-4-yl)-4-phenylpiperidine-4-carbonitrile], the IC50 on ALDH1A1 enzyme and in the assay on MIA PaCa-2 cells was below 0.5 µM in each case.
As to `CC1(O)CCN(C(=O)c2cnc3ccc(F)cc3c2-c2ccc(C3(C#N)CC3)cc2)CC1` [Cpd. 350, 1-(4-(6-fluoro-3-(4-hydroxy-4-methylpiperidine-1-carbonyl)quinolin-4-yl)phenyl)cyclopropane-1-carbonitrile], the half-maximal inhibitory concentration (IC50) on ALDH1A1 enzyme is below 0.5 µM; with MIA PaCa-2 cells, 1 to 10 µM.
For `N#CC1(c2ccccc2)CCN(c2c(C(=O)N3CCC(O)(CO)CC3)cnc3ccc(F)cc23)CC1` [Cpd. 351, 1-(6-fluoro-3-(4-hydroxy-4-(hydroxymethyl)piperidine-1-carbonyl)quinolin-4-yl)-4-phenylpiperidine-4-carbonitrile], the IC50 on ALDH1A1 enzyme and with MIA PaCa-2 cells was below 0.5 µM each time.
Turning to `N#CC1(c2ccc(-c3c(C(=O)N4CCC(O)(C5CC5)CC4)cnc4ccc(F)cc34)cc2)CC1` [Cpd. 353, 1-(4-(3-(4-cyclopropyl-4-hydroxypiperidine-1-carbonyl)-6-fluoroquinolin-4-yl)phenyl)cyclopropane-1-carbonitrile], the values for the IC50 on ALDH1A1 enzyme and with MIA PaCa-2 cells were below 0.5 µM and 1 to 10 µM, respectively.
Turning to `N#CC1(c2ccc(-c3c(C(=O)N4CCC(O)(CO)CC4)cnc4ccc(F)cc34)cc2)CC1` [Cpd. 354, 1-(4-(6-fluoro-3-(4-hydroxy-4-(hydroxymethyl)piperidine-1-carbonyl)quinolin-4-yl)phenyl)cyclopropane-1-carbonitrile], the results for the IC50 on ALDH1A1 enzyme and in the assay with MIA PaCa-2 cells were below 0.5 µM and 1 to 10 µM, respectively.
Consider `CNC(=O)Cn1cc(NC(=O)c2cnc3ccc(F)cc3c2-c2ccc(C3(C#N)CC3)cc2)cn1` [Cpd. 355, 4-(4-(1-cyanocyclopropyl)phenyl)-6-fluoro-N-(1-(2-(methylamino)-2-oxoethyl)-1H-pyrazol-4-yl)quinoline-3-carboxamide], for which the values for the IC50 at ALDH1A1 enzyme and in the assay on MIA PaCa-2 cells were below 0.5 µM and 1 to 10 µM, respectively.
`CS(=O)(=O)N1CCN(C(=O)c2cnc3ccc(F)cc3c2N2CCC(C#N)(c3cccs3)CC2)CC1` [Cpd. 356, 1-(6-fluoro-3-(4-(methylsulfonyl)piperazine-1-carbonyl)quinolin-4-yl)-4-(thiophen-2-yl)piperidine-4-carbonitrile]: the IC50 at ALDH1A1 enzyme and in the assay with MIA PaCa-2 cells was below 0.5 µM throughout.
As for `CS(=O)(=O)N1CCN(C(=O)c2cnc3ccc(F)cc3c2-c2ccc(/C(C#N)=C/C3CC3)cc2)CC1` [Cpd. 357, (Z)-3-cyclopropyl-2-(4-(6-fluoro-3-(4-(methylsulfonyl)piperazine-1-carbonyl)quinolin-4-yl)phenyl)acrylonitrile], the half-maximal inhibitory concentration (IC50) on ALDH1A1 enzyme and in the assay on MIA PaCa-2 cells was below 0.5 µM throughout.
As to `COc1ccc2ncc(C(=O)N3CCC(OC)CC3)c(N3CCC4(CC3)OCCO4)c2c1` [Example 2, (6-methoxy-4-(1,4-dioxa-8-azaspiro[4.5]decan-8-yl)quinolin-3-yl)(4-methoxypiperidin-1-yl)methanone, TFA], the results for the IC50 at ALDH1A1 enzyme and in the assay with MIA PaCa-2 cells were below 0.5 µM and 1 to 10 µM, respectively.
For `COc1ccc2ncc(C(=O)N3CCN(C(=O)C4CC4)CC3)c(N3CCC(OC)CC3)c2c1` [Example 3, (4-(cyclopropanecarbonyl)piperazin-1-yl)(6-methoxy-4-(4-methoxypiperidin-1-yl)quinolin-3-yl)methanone, TFA], the IC50 at ALDH1A1 enzyme was below 0.5 µM; in the assay with MIA PaCa-2 cells, above 10 µM.

By IC50 is commonly meant the concentration that gives 50% inhibition.

The values above are taken from patent publication US11795177B2, “Substituted quinoline analogs as aldehyde dehydrogenase 1A1 (ALDH1A1) inhibitors” (THE UNITED STATES OF AMERICA, AS REPRESENTED BY THE …, priority 2017, dated 2023).
